Test results: ChEMBL document CHEMBL5357082, “Identification and Optimization of Small Molecule Pyrazolopyrimidine TLR7 Agonists for Applications in Immuno-oncology” (ACS Med Chem Lett, 2024)

What was measured:
[1] = Metabolic stability in human liver microsomes assessed as compound remaining at 0.5 uM incubated for 10 mins in presence of NADPH by UV absorbance based assay; type: ADME, Microsome; settings: read-out: Stability
[2] = Drug concentration in nontumor bearing Balb/C mouse at 0.5 mg/kg measured after 5 mins; type: ADME, organism-based; settings: in vivo, read-out: Drug uptake
[3] = Half life in nontumor bearing Balb/C mouse at 0.5 mg/kg; type: ADME, organism-based; settings: in vivo
[4] = Metabolic stability in mouse liver microsomes assessed as compound remaining at 0.5 uM incubated for 10 mins in presence of NADPH by UV absorbance based assay; type: ADME, Microsome; settings: read-out: Stability
[5] = AUClast in nontumor bearing Balb/C mouse at 0.5 mg/kg; type: ADME, organism-based; design: dose 0.5 mg/kg; settings: in vivo
[6] = Clearance in nontumor bearing Balb/C mouse at 0.5 mg/kg; type: ADME, organism-based; settings: in vivo
[7] = molecular target: T1, Toll-like receptor 8 (Homo sapiens, UniProt Q9NR97); experiment: Agonist activity at human TLR8
T1 sequence (Q9NR97 whole entry): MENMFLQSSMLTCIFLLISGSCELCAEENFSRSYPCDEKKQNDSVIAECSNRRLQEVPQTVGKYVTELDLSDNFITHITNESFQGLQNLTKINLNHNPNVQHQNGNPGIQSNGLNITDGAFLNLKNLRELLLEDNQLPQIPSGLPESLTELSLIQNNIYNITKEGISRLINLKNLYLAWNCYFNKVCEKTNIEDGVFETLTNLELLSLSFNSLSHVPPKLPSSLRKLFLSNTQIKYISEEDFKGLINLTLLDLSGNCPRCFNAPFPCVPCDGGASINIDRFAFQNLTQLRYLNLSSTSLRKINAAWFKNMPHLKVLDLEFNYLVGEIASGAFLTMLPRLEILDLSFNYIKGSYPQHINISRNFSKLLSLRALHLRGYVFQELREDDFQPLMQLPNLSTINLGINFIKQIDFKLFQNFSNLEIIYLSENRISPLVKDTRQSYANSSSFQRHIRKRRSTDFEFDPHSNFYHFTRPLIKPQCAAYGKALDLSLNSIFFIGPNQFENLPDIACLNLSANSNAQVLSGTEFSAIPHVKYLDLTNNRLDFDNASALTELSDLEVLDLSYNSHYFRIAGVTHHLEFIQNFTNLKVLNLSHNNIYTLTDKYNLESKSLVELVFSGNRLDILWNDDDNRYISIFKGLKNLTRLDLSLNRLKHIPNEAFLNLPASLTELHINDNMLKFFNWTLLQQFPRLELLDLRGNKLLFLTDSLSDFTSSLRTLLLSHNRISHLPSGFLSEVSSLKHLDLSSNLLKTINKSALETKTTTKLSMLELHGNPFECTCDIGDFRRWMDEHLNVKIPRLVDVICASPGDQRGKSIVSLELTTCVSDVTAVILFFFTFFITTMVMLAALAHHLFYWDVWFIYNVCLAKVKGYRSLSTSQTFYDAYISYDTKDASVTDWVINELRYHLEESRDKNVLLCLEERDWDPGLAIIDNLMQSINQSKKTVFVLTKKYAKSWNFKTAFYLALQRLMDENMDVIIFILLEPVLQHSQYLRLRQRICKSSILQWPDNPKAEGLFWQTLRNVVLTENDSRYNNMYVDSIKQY

remaining at 10 min, 0.5 µM [1]: 75% | concentration at 5 min [2]: 66 nM | half-life [3]: 5.6 h | remaining at 10 min, 0.5 µM [4]: 81% | AUC(0-t) [5]: 0.111 µM·h | clearance [6]: 149 mL/min/kg | EC50 [7]: > 5 µM
Compound: CCC[C@@H](CCO)Nc1nc(N)nc2cnn(Cc3ccc(CNC4CCOCC4)cc3OC)c12
